US10112939B2, “Tied-back benzamide derivatives as potent rock inhibitors” (Bristol-Myers Squibb Company, priority 2014, dated 2018)

Molecular target: ROCK2 (Homo sapiens (Human), UniProt O75116)
Test: ROCK assay (peptide substrate phosphorylation, LABCHIP 3000 Reader)
Assay type: biochemical
Details: 5 μM ATP, 1.5 μM peptide substrate
Method: Compounds were dissolved in DMSO so that the final concentration of DMSO was <2%, and the reaction was initiated with Rho kinase variants. After incubation, the reaction was terminated by the addition of EDTA and the phosphorylated and non-phosphorylated peptides separated using a LABCHIP® 3000 Reader (Caliper Life Sciences). […] Compounds were tested in dose-response format, and the inhibition of kinase activity was calculated at each concentration of compound.

ROCK2, sequence (O75116 whole entry, species assumed): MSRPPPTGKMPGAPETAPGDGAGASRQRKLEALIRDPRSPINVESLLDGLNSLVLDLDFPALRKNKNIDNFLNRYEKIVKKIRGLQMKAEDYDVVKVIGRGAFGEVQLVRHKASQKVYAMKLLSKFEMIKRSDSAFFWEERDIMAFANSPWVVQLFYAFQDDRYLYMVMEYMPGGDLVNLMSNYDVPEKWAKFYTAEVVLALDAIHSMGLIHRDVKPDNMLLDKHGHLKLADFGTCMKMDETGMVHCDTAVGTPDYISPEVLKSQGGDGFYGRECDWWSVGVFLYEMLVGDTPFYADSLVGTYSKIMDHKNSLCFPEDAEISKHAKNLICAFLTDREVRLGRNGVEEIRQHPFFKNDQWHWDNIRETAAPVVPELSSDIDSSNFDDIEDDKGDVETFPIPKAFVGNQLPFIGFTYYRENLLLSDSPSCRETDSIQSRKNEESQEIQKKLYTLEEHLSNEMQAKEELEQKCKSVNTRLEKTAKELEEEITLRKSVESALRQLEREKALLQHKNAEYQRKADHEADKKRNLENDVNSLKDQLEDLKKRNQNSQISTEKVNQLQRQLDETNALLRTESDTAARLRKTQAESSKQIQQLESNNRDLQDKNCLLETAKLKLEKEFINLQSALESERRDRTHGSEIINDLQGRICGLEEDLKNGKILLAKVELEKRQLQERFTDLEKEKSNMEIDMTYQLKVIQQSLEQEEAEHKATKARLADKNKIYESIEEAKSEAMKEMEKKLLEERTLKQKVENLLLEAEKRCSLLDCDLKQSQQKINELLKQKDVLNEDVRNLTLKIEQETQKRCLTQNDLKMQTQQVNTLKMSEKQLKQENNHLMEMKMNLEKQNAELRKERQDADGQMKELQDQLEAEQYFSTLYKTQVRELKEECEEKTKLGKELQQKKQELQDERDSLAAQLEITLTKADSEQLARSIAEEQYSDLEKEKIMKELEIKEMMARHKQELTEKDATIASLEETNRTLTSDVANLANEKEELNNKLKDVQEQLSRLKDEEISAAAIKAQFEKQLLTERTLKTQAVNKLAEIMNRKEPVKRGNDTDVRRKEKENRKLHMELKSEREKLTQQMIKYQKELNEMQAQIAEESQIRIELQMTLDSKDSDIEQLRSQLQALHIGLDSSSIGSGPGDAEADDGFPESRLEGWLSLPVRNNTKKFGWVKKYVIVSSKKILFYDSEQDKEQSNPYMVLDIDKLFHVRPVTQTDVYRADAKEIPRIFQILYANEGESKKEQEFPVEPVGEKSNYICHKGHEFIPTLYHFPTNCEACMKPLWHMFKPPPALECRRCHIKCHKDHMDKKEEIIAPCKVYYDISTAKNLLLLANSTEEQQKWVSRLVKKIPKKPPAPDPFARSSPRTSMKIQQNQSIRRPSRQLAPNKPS

| SMILES | IC50 |
| --- | --- |
| COc1cc(C(=O)N2CC(O)C[C@@H]2c2cccc(C(=O)NC3CC3)c2)ccc1-c1cn[nH]c1 (stereo partly drawn) [Example 48, N-cyclopropyl-3-[(2R)-4-hydroxy-1-[3-methoxy-4-(1H-pyrazol-4-yl)benzoyl]pyrrolidin-2-yl]benzamide] | 5.32 nM |
| CCN1CCC[C@H]1CNC(=O)c1cccc([C@H]2CC(O)CN2C(=O)c2ccc(-c3cn[nH]c3)c(OC)c2)c1 (stereo partly drawn) [Example 49, N-{[(2S)-1-ethylpyrrolidin-2-yl]methyl}-3-[(2R)-4-hydroxy-1-[3-methoxy-4-(1H-pyrazol-4-yl)benzoyl]pyrrolidin-2-yl]benzamide] | 43.4 nM |
| COCCNC(=O)c1cccc([C@H]2CC(O)CN2C(=O)c2ccc(-c3cn[nH]c3)c(OC)c2)c1 (stereo partly drawn) [Example 50, 3-[(2R)-4-hydroxy-1-[3-methoxy-4-(1H-pyrazol-4-yl)benzoyl]pyrrolidin-2-yl]-N-(2-methoxyethyl) benzamide] | 5.1 nM |
| COc1cc(C(=O)N2CC(O)C[C@@H]2c2cccc(C(=O)NCC3CC3)c2)ccc1-c1cn[nH]c1 (stereo partly drawn) [Example 51, N-(cyclopropylmethyl)-3-[(2R)-4-hydroxy-1-[3-methoxy-4-(1H-pyrazol-4-yl)benzoyl]pyrrolidin-2-yl]benzamide] | 2.71 nM |
| COc1cc(C(=O)N2CC(O)C[C@@H]2c2cccc(C(=O)NC(C)C)c2)ccc1-c1cn[nH]c1 (stereo partly drawn) [Example 52, 3-[(2R)-4-hydroxy-1-[3-methoxy-4-(1H-pyrazol-4-yl)benzoyl]pyrrolidin-2-yl]-N-(propan-2-yl)benzamide] | 6.68 nM |
| COc1cc(C(=O)N2CC(O)C[C@@H]2c2cccc(C(=O)NC3CCC3)c2)ccc1-c1cn[nH]c1 (stereo partly drawn) [Example 54, N-cyclobutyl-3-[(2R)-4-hydroxy-1-[3-methoxy-4-(1H-pyrazol-4-yl)benzoyl]pyrrolidin-2-yl]benzamide] | 5.09 nM |
| COc1cc(C(=O)N2CC(O)C[C@@H]2c2cccc(C(=O)NCc3ncco3)c2)ccc1-c1cn[nH]c1 (stereo partly drawn) [Example 55, 3-[(2R)-4-hydroxy-1-[3-methoxy-4-(1H-pyrazol-4-yl)benzoyl]pyrrolidin-2-yl]-N-(1,3-oxazol-2-ylmethyl)benzamide] | 2.5 nM |
| COc1cc(C(=O)N2CC(O)C[C@@H]2c2cccc(C(=O)NC3CCOCC3)c2)ccc1-c1cn[nH]c1 (stereo partly drawn) [Example 56, 3-[(2R)-4-hydroxy-1-[3-methoxy-4-(1H-pyrazol-4-yl)benzoyl]pyrrolidin-2-yl]-N-(oxan-4-yl)benzamide] | 7.17 nM |
| COc1cc(C(=O)N2CC(O)C[C@@H]2c2cccc(C(=O)NC3(C)CC3)c2)ccc1-c1cn[nH]c1 (stereo partly drawn) [Example 57, 3-[(2R)-4-hydroxy-1-[3-methoxy-4-(1H-pyrazol-4-yl)benzoyl]pyrrolidin-2-yl]-N-(1-methylcyclopropyl) benzamide] | 43.4 nM |
| COc1cc(C(=O)N2CC(O)C[C@@H]2c2cccc(C(=O)NCc3cc(C)no3)c2)ccc1-c1cn[nH]c1 (stereo partly drawn) [Example 58, 3-[(2R)-4-hydroxy-1-[3-methoxy-4-(1H-pyrazol-4-yl)benzoyl]pyrrolidin-2-yl]-N-[(3-methyl-1,2-oxazol-5-yl)methyl] benzamide] | 5.32 nM |
| COc1cc(C(=O)N2CC(O)C[C@@H]2c2cccc(C(=O)NCc3cc(C)on3)c2)ccc1-c1cn[nH]c1 (stereo partly drawn) [Example 59, 3-[(2R)-4-hydroxy-1-[3-methoxy-4-(1H-pyrazol-4-yl)benzoyl]pyrrolidin-2-yl]-N-[(5-methyl-1,2-oxazol-3-yl)methyl] benzamide] | 1.8 nM |
| COc1cc(C(=O)N2CC(O)C[C@@H]2c2cccc(C(=O)NCC(F)F)c2)ccc1-c1cn[nH]c1 (stereo partly drawn) [Example 60, N-(2,2-difluoroethyl)-3-[(2R)-4-hydroxy-1-[3-methoxy-4-(1H-pyrazol-4-yl)benzoyl]pyrrolidin-2-yl]benzamide] | 4.08 nM |
| COc1cc(C(=O)N2CC(O)C[C@@H]2c2cccc(C(=O)N3CC(C#N)C3)c2)ccc1-c1cn[nH]c1 (stereo partly drawn) [Example 61, 1-{3-[(2R)-4-hydroxy-1-[3-methoxy-4-(1H-pyrazol-4-yl)benzoyl]pyrrolidin-2-yl]benzoyl} azetidin-3-carbonitrile] | 102 nM |
| COc1cc(C(=O)N2CC(O)C[C@@H]2c2cccc(C(=O)N3CC(OC)C3)c2)ccc1-c1cn[nH]c1 (stereo partly drawn) [Example 62, (5R)-1-[3-methoxy-4-(1H-pyrazol-4-yl)benzoyl]-5-[3-(3-methoxyazetidine-1-carbonly)phenyl] pyrrolidin-3-ol] | 316 nM |
| COc1cc(C(=O)N2CC(O)C[C@@H]2c2cccc(C(=O)NCc3ccc(C(F)(F)F)cc3F)c2)ccc1-c1cn[nH]c1 (stereo partly drawn) [Example 63, N-{[2-fluoro-4-(trifluoromethyl)phenyl]methyl}-3-[(2R)-4-hydroxy-1-[3-methoxy-4-(1H-pyrazol-4-yl)benzoyl]pyrrolidin-2-yl]benzamide] | 5.25 nM |
| COc1cc(C(=O)N2CC(O)C[C@@H]2c2cccc(C(=O)N3CC(F)C3)c2)ccc1-c1cn[nH]c1 (stereo partly drawn) [Example 64, (5R)-5-[3-(3-fluoroazetidine-1-carbonyl)phenyl]-1-[3-methoxy-4-(1H-pyrazol-4-yl)benzoyl]pyrrolidin-3-ol] | 204 nM |
| COc1cc(C(=O)N2CC(O)C[C@@H]2c2cccc(C(=O)N3CC(F)(F)C3)c2)ccc1-c1cn[nH]c1 (stereo partly drawn) [Example 65, (5R)-5-[3-(3,3-difluoroazetidine-1-carbonyl)phenyl]-1-[3-methoxy-4-(1H-pyrazol-4-yl)benzoyl]pyrrolidin-3-ol] | 91.4 nM |

| SMILES | IC50 |
| --- | --- |
| COc1cc(C(=O)N2CC(O)C[C@@H]2c2cccc(C(=O)NCc3cc(F)cc(C(F)(F)F)c3)c2)ccc1-c1cn[nH]c1 (stereo partly drawn) [Example 66, N-{[3-fluoro-5-(trifluoromethyl)phenyl]methyl}-3-[(2R)-4-hydroxy-1-[3-methoxy-4-(1H-pyrazol-4-yl)benzoyl]pyrrolidin-2-yl]benzamide] | 4.35 nM |
| COc1cc(C(=O)N2CC(O)C[C@@H]2c2cccc(C(=O)N3CCC3)c2)ccc1-c1cn[nH]c1 (stereo partly drawn) [Example 67, (5R)-5-[3-(azetidine-1-carbonyl)phenyl]-1-[3-methoxy-4-(1H-pyrazol-4-yl)benzoyl]pyrrolidin-3-ol] | 293 nM |
| COc1cc(C(=O)N2CCNCC2c2ccccc2)ccc1-c1cn[nH]c1 (stereo not shown) [Example 68, 1-[3-Methoxy-4-(1H-pyrazol-4-yl)benzoyl]-2-phenylpiperazine] | 60.2 nM |
| COc1cc(C(=O)N[C@@H]2CNC[C@H]2c2ccccc2)ccc1-c1cn[nH]c1 [Example 69, 3-Methoxy-N-[(3S,4R)-4-phenylpyrrolidin-3-yl]-4-(1H-pyrazol-4-yl)benzamide] | 3.59 nM |
| COc1cc(C(=O)N2CCCC2c2cccc(-c3cn[nH]c3)c2)ccc1-c1cn[nH]c1 (stereo not shown) [Example 71, 4-(2-Methoxy-4-{2-[3-(1H-pyrazol-4-yl)phenyl]pyrrolidine-1-carbonyl}phenyl)-1H-pyrazole] | 54.9 nM |
| COc1cc(-c2cn[nH]c2)ccc1C(=O)N1CCCC1c1cccc(-c2cn[nH]c2)c1 (stereo not shown) [Example 72, 4-(3-methoxy-4-{2-[3-(1H-pyrazol-4-yl)phenyl]pyrrolidine-1-carbonyl}phenyl)-1H-pyrazole] | 1600 nM |
| COc1cc(C(=O)N2CCCC2c2cccc(-c3ccnn3C)c2)ccc1-c1cn[nH]c1 (stereo not shown) [Example 73, 5-(3-{1-[3-methoxy-4-(1H-pyrazol-4-yl)benzoyl]pyrrolidin-2-yl}phenyl)-1-methyl-1H-pyrazole] | 1530 nM |
| COc1cc(C(=O)N2CCCC2c2cccc(-c3cnn(CC(C)(C)O)c3)c2)ccc1-c1cn[nH]c1 (stereo not shown) [Example 74, 1-[4-(3-{1-[3-methoxy-4-(1H-pyrazol-4-yl)benzoyl]pyrrolidin-2-yl}phenyl)-1H-pyrazol-1-yl]-2-methylpropan-2-ol] | 901 nM |
| COc1cc(C(=O)N2CCCC2c2cccc(-c3c(C)noc3C)c2)ccc1-c1cn[nH]c1 (stereo not shown) [Example 75, 4-(3-{1-[3-methoxy-4-(1H-pyrazol-4-yl)benzoyl]pyrrolidin-2-yl}phenyl)-3,5-dimethyl-1,2-oxazole] | 1570 nM |
| COc1cc(C(=O)N2CCCC2c2cccc(-c3ccoc3)c2)ccc1-c1cn[nH]c1 (stereo not shown) [Example 76, 4-(4-{2-[3-(furan-3-yl)phenyl]pyrrolidine-1-carbonyl}-2-methoxyphenyl)-1H-pyrazole] | 320 nM |
| COc1cc(C(=O)N2CCCC2c2cccc(-c3ccn[nH]3)c2)ccc1-c1cn[nH]c1 (stereo not shown) [Example 77, 4-(2-methoxy-4-{2-[3-(1H-pyrazol-5-yl)phenyl]pyrrolidine-1-carbonyl}phenyl)-1H-pyrazole] | 887 nM |
| COc1cc(C(=O)N2CC(F)C[C@@H]2c2cccc(C(=O)NC3CC3)c2)ccc1-c1cn[nH]c1 (stereo partly drawn) [Example 78, N-Cyclopropyl-3-[(2R)-4-fluoro-1-[3-methoxy-4-(1H-pyrazol-4-yl)benzoyl]pyrrolidin-2-yl]benzamide] | 4.7 nM |
| COc1cc(C(=O)N2CC(F)(F)C[C@@H]2c2cccc(C(=O)NC3CC3)c2)ccc1-c1ccncc1 [Example 79, N-Cyclopropyl-3-[(2R)-4,4-difluoro-1-[3-methoxy-4-(pyridin-4-yl)benzoyl]pyrrolidin-2-yl]benzamide] | 24.3 nM |
| COc1cc(C(=O)N2CC(F)(F)C[C@@H]2c2cccc(C(=O)NC3CC3)c2)ccc1-c1cn[nH]c1 [Example 80, N-Cyclopropyl-3-[(2R)-4,4-difluoro-1-[3-methoxy-4-(1H-pyrazol-4-yl)benzoyl]pyrrolidin-2-yl]benzamide] | 5.4 nM |
| COc1cccc(C2CCCN2C(=O)c2ccc(-c3ccnc(N)c3)c(OC)c2)c1 (stereo not shown) [Example 81, 4-{2-Methoxy-4-[2-(3-methoxyphenyl)pyrrolidine-1-carbonyl]phenyl} pyridin-2-amine] | 158 nM |
| COc1cccc(C2CCCN2C(=O)c2ccc(-c3ccnc4[nH]ccc34)c(OC)c2)c1 (stereo not shown) [Example 82, 1-(3-methoxy-4-{1H-pyrrolo[2,3-b]pyridin-4-yl}benzoyl)-2-(3-methoxyphenyl) pyrrolidine] | 56.8 nM |
| COc1cccc(C2CCCN2C(=O)c2ccc(-c3ccnc(F)c3)c(OC)c2)c1 (stereo not shown) [Example 83, 2-fluoro-4-{2-methoxy-4-[2-(3-methoxyphenyl)pyrrolidine-1-carbonyl]phenyl}pyridine] | 153 nM |
